# Experimental data as given in US20180148429A1 (SELVITA S.A., priority 2015, published 2018).
# Biological target: T1, Human recombinant His-tagged PFKFB3 (Homo sapiens, UniProt Q16875)
# T1 construct: His; made in house
# Experiment: PFKFB3 IC50 determination assay (in vitro kinase assay, modified ADP-Glo system)
# Type: biochemical
# Conditions: not given
# Experimental: PFKFB3 IC50 Determination Assay
# In vitro kinase assay used to determine IC50 values for tested inhibitors is based on a modified ADP-Glo™ system (Promega) and consists of two parts:
# 1. Kinase reaction—performed in optimized conditions. At this step PFKFB3 phosphorylates its substrate fructose-6-phosphate using ATP as a source of phosphate to produce fructose-2,6-bisphosphate and ADP. Reaction is performed at Km values for ATP and substrate using optimized buffer composition and time of the reaction. Human recombinant His-tagged PFKFB3 (PFKFB3 BATCH II SEC) with confirmed activity is produced and purified in-house.
# 2. Detection of ADP as a product of the reaction using ADP-Glo™ system. This part is conducted by using the commercially available kit ADP-Glo™ Kinase Assay (Promega, cat. No# V9103) according to manufacturer's instruction, modified by 5× dilutions of assay reagents (both ADP-Glo™ Reagent and Kinase Detection Solution).
# Test compounds are dissolved in DMSO and then transferred to the V-bottom 96-well plate.
# 15 μL per well of Mix 1 is transferred to assay wells of 96-well white plate. […] Total reaction volume is 30 μL per well. Samples are tested in duplicates. Final concentration of DMSO in the reaction is 6.7%. Conditions needed for performing PFKFB3 (PFKFB3 BATCH II SEC) in vitro kinase assay are given below:
# This protocol is based on Technical Bulletin, ADP-Glo™ Kinase Assay (Promega) and is adapted to 96-well plate containing 30 μL reaction mixture:
# The plate is incubated for 90 minutes on a shaker at rt. […] Plate is incubated for 40 minutes on a shaker at rt, protected from light. Luminescence is measured in the plate reader Synergy 2 (BioTek).
# Luminescent readouts for compounds tested in 10 concentrations (routinely from 100 μM to […], […] serial dilutions) in duplicates, as well as for positive control, are first normalized to no-substrate negative control by its subtraction. In the next step, % of normalized positive control is calculated for each data point and plotted against test compound concentration:
# % of control—percent of positive control normalized to no-substrate negative control Lumcpd—luminescence of test compound Lumneg—luminescence of no-substrate negative control Lumpos—luminescence of positive control
# IC50 parameter is determined by the GraphPad Prism 5.0 software
# [log(inhibitor) vs. response−Variable slope (four parameters)].
# T1 sequence (Q16875 whole entry): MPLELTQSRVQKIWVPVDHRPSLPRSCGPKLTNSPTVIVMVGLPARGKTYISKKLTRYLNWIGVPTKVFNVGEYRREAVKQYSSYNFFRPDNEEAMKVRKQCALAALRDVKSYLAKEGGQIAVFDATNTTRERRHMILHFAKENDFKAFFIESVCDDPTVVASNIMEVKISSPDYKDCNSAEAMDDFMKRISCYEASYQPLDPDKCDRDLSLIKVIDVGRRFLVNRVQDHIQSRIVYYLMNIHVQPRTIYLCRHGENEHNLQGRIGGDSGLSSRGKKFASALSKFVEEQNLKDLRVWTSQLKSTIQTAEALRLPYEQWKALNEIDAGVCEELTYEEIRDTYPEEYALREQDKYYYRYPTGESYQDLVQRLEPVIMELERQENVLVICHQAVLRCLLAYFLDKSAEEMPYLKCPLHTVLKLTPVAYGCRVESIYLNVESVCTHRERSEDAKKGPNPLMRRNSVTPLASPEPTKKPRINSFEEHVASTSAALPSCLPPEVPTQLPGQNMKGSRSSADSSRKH
row,SMILES,IC50
1,"COc1ccc([C@@H](Nc2cc(-c3ccc4ccn(C)c4c3)c3nccnc3c2)c2cnnn2C)cn1 [Example 325, N-[(R)-(6-methoxypyridin-3-yl)(1-methyl-1H-1,2,3-triazol-5-yl)methyl]-8-(1-methyl-1H-indol-6-yl)quinoxalin-6-amine]",1 to 1000 nM
2,"COc1ccc([C@H](Nc2cc(-c3ccc4ccn(C)c4c3)c3nccnc3c2)c2cccnc2)cn1 [Example 272, N-[(R)-(6-methoxypyridin-3-yl)(pyridin-3-yl)methyl]-8-(1-methyl-1H-indol-6-yl)quinoxalin-6-amine]",1000 to 10000 nM

# Same assay, conditions: ADP-Glo; ATP 20 μM (Km), fructose-6-phosphate 2 μM (Km), 25 nM PFKFB3, 2 h, rt; read-out: PFKFB3 IC50
row,SMILES,IC50
1,"CC(=O)N1CCC(C(Nc2cc(-c3ccc(Br)cc3)c3nccnc3c2)c2cccnc2)CC1 (stereo not drawn) [Example 292, 1-[4-({[8-(4-bromophenyl)quinoxalin-6-yl]amino}(pyridin-3-yl)methyl)piperidin-1-yl]ethan-1-one]",10000 to 100000 nM
2,CC(C)C(=O)N1CCC(Nc2cc(-c3ccc4ccn(C)c4c3)c3nccnc3c2)C1 (stereo not drawn) [Example 166],1000 to 10000 nM
3,"Cn1cnnc1CNc1cc(-c2ccc3ccn(C)c3c2)c2nccnc2c1 [Example 279, 8-(1-methyl-1H-indol-6-yl)-N-[(4-methyl-4H-1,2,4-triazol-3-yl)methyl]quinoxalin-6-amine]",1000 to 10000 nM
4,CC(=O)N1CC[C@H](Nc2cc(-c3ccc4ccn(C)c4c3)c3nccnc3c2)C1 [Example 153],1000 to 10000 nM
5,CC(=O)N1CC[C@@H](Nc2cc(-c3ccc4ccn(C)c4c3)c3nccnc3c2)C1 [Example 154],1000 to 10000 nM
6,"Cc1nnc(CNc2cc(-c3ccc4ccn(C)c4c3)c3nccnc3c2)o1 [Example 282, N-[(5-methyl-1,3,4-oxadiazol-2-yl)methyl]-8-(1-methyl-1H-indol-6-yl)quinoxalin-6-amine]",1000 to 10000 nM
7,"Cn1cc(CNc2cc(-c3ccc4ccn(C)c4c3)c3nccnc3c2)cn1 [Example 306, 8-(1-methyl-1H-indol-6-yl)-N-[(1-methyl-1H-pyrazol-4-yl)methyl]quinoxalin-6-amine]",1000 to 10000 nM
8,"Cn1ccc2ccc(-c3cc(N[C@H]4CCN(C(=O)c5ccccn5)C4)cc4nccnc34)cc21 [Example 160, 8-(1-methyl-1H-indol-6-yl)-N-[(3S)-1-(pyridine-2-carbonyl)pyrrolidin-3-yl]quinoxalin-6-amine]",1000 to 10000 nM
9,CCn1ccc2ccc(-c3cc(NC4CCN(C(C)=O)CC4)cc4nccnc34)cc21 [Example 147],1000 to 10000 nM
10,"Cn1ccc2ccc(-c3cc(N[C@H]4CCN(c5nc6ccccc6[nH]5)C4)cc4nccnc34)cc21 [Example 161, N-[(3S)-1-(1H-1,3-benzodiazol-2-yl)pyrrolidin-3-yl]-8-(1-methyl-1H-indol-6-yl)quinoxalin-6-amine]",1000 to 10000 nM
11,"Cc1ncc(CNc2cc(-c3ccc4ccn(C)c4c3)c3nccnc3c2)o1 [Example 312, N-[(2-methyl-1,3-oxazol-5-yl)methyl]-8-(1-methyl-1H-indol-6-yl)quinoxalin-6-amine]",1000 to 10000 nM
12,"CC(N)C(=O)N1CCC(C(Nc2cc(-c3ccc4ccn(C)c4c3)c3nccnc3c2)c2cccnc2)CC1 (stereo not drawn) [Example 274, 2-amino-1-[4-({[8-(1-methyl-1H-indol-6-yl)quinoxalin-6-yl]amino}(pyridin-3-yl)methyl)piperidin-1-yl]propan-1-one]",1000 to 10000 nM
13,Cn1ccc2ccc(-c3cc(NC(c4cccnc4)c4cncnc4)cc4nccnc34)cc21 (stereo not drawn) [Example 257],1000 to 10000 nM
14,"Cn1cnc(C(Nc2cc(-c3ccc4ccn(C)c4c3)c3nccnc3c2)c2cccnc2)c1 (stereo not drawn) [Example 290, N-[(1-methyl-1H-imidazol-4-yl)(pyridin-3-yl)methyl]-8-(1-methyl-1H-indol-6-yl)quinoxalin-6-amine]",1000 to 10000 nM

# Further lines, results first:
row,IC50,SMILES
1,1 to 1000 nM,"CNC(=O)CN1CCC(C(Nc2cc(-c3ccc4ccn(C)c4c3)c3nccnc3c2)c2cccnc2)CC1 (stereo not drawn) [Example 275, N-methyl-2-[4-({[8-(1-methyl-1H-indol-6-yl)quinoxalin-6-yl]amino}(pyridin-3-yl)methyl)piperidin-1-yl]acetamide]"
2,1 to 1000 nM,"Cn1ccc2ccc(-c3cc(NC(c4cccnc4)C4CCC(N)CC4)cc4nccnc34)cc21 (stereo not drawn) [Example 308, N-[(4-aminocyclohexyl)(pyridin-3-yl)methyl]-8-(1-methyl-1H-indol-6-yl)quinoxalin-6-amine]"
3,1 to 1000 nM,"COc1ccc(C(Nc2cc(-c3ccc4scc(C)c4c3)c3nccnc3c2)c2cnnn2C)cn1 (stereo not drawn) [Example 302, N-[(6-methoxypyridin-3-yl)(1-methyl-1H-1,2,3-triazol-5-yl)methyl]-8-(3-methyl-1-benzothiophen-5-yl)quinoxalin-6-amine]"
4,1 to 1000 nM,CC(=O)N1CCC[C@@H](Nc2cc(-c3ccc4ccn(C)c4c3)c3nccnc3c2)C1 [Example 157]
5,1 to 1000 nM,"CC(=O)N[C@H]1CC[C@H]([C@H](Nc2cc(-c3ccc4ccn(C)c4c3)c3nccnc3c2)c2cccnc2)CC1 [Example 328, N-[(1S,4r)-4-[(S)-{[8-(1-methyl-1H-indol-6-yl)quinoxalin-6-yl]amino}(pyridin-3-yl)methyl]cyclohexyl]acetamide]"
6,1 to 1000 nM,"Cn1ccc2ccc(-c3cc(NCc4ccns4)cc4nccnc34)cc21 [Example 281, 8-(1-methyl-1H-indol-6-yl)-N-[(1,2-thiazol-5-yl)methyl]quinoxalin-6-amine]"
7,1 to 1000 nM,"Cn1ccc2ccc(-c3cc(NC(C)(c4cccnc4)c4cccnc4)cc4nccnc34)cc21 [Example 320, N-[1,1-bis(pyridin-3-yl)ethyl]-8-(1-methyl-1H-indol-6-yl)quinoxalin-6-amine]"
8,1 to 1000 nM,"COc1cc(C(Nc2cc(-c3ccc4ccn(C)c4c3)c3nccnc3c2)c2cccnc2)ccn1 (stereo not drawn) [Example 240, N-[(2-methoxypyridin-4-yl)(pyridin-3-yl)methyl]-8-(1-methyl-1H-indol-6-yl)quinoxalin-6-amine]"
9,1 to 1000 nM,"Cn1ccc2ccc(-c3cc(NC(c4cccnc4)C4CCN(S(C)(=O)=O)CC4)cc4nccnc34)cc21 (stereo not drawn) [Example 318, N-[(1-methanesulfonylpiperidin-4-yl)(pyridin-3-yl)methyl]-8-(1-methyl-1H-indol-6-yl)quinoxalin-6-amine]"
10,1 to 1000 nM,"COc1ccc(C(Nc2cc(-c3ccc4occ(C)c4c3)c3nccnc3c2)c2cnnn2C)cn1 (stereo not drawn) [Example 316, N-[(6-methoxypyridin-3-yl)(1-methyl-1H-1,2,3-triazol-5-yl)methyl]-8-(3-methyl-1-benzofuran-5-yl)quinoxalin-6-amine]"
11,1 to 1000 nM,Cn1ccc2ccc(-c3cc(NC(c4cccnc4)C4CCN(CC#N)CC4)cc4nccnc34)cc21 (stereo not drawn) [Example 239]
12,1 to 1000 nM,"CC(=O)N1CCC([C@H](Nc2cc(-c3ccc4scc(C)c4c3)c3nccnc3c2)c2cccnc2)CC1 [Example 311, 1-{4-[(S)-{[8-(3-methyl-1-benzothiophen-5-yl)quinoxalin-6-yl]amino}(pyridin-3-yl)methyl]piperidin-1-yl}ethan-1-one]"
13,1 to 1000 nM,"CN(C)C(=O)CN1CCC(C(Nc2cc(-c3ccc4ccn(C)c4c3)c3nccnc3c2)c2cccnc2)CC1 (stereo not drawn) [Example 276, N,N-dimethyl-2-[4-({[8-(1-methyl-1H-indol-6-yl)quinoxalin-6-yl]amino}(pyridin-3-yl)methyl)piperidin-1-yl]acetamide]"
14,1 to 1000 nM,"COc1ccc([C@@H](Nc2cc(-c3ccc4scc(C)c4c3)c3nccnc3c2)c2cnnn2C)cn1 [Example 323, N-[(R)-(6-methoxypyridin-3-yl)(1-methyl-1H-1,2,3-triazol-5-yl)methyl]-8-(3-methyl-1-benzothiophen-5-yl)quinoxalin-6-amine]"
